According to US12286424B2, “Small molecule inhibitors of galectin-3” (BRISTOL-MYERS SQUIBB COMPANY, priority 2020, dated 2025):
Where two headings read alike, the source gives them in different places.

Molecular target: T1, hGalectin-3 (Homo sapiens, UniProt P17931)
T1 construct: made in house
Assay: Gal-3 ELISA assay (hGalectin-3 neutralization binding to asialofetuin)

[1] = biotin-tagged hGalectin-3 15 nM, ASF-coated plate, read-out: hGal3 IC50

T1 sequence (P17931 whole entry): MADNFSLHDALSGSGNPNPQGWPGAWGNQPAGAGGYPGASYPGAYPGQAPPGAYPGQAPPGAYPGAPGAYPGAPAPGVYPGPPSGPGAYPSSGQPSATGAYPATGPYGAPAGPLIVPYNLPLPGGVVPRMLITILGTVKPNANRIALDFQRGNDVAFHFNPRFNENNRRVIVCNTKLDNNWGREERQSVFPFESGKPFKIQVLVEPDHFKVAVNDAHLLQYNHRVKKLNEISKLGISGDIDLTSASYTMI

IC50 [1] [nM]	IC50 (Table 1, read-out: hGal-3 IC50) [nM]	IC50 (Table 3, read-out: hGal-3 IC50) [nM]	Structure (SMILES)
350			O=C([C@@H]1O[C@H](CO)[C@H](O)[C@H](n2cc(-c3cccc(F)c3)nn2)[C@H]1O)N1CCN(c2ccc(O)cc2)CC1 [Example 1, ((2R, 3R, 4S, 5R, 6R)-4-(4-(3-fluorophenyl)-1H-1,2,3-triazol-1-yl)-3,5-dihydroxy-6-(hydroxymethyl)tetrahydro-2H-pyran-2-yl)(4-(4-hydroxyphenyl)piperazin-1-yl) methanone]
310			OCC1CN(c2ccc(O)cc2)CCN1C[C@@H]1O[C@H](CO)[C@H](O)[C@H](n2cc(-c3cccc(F)c3)nn2)[C@H]1O (single isomer, unassigned) [Example 39a]
270	395		O=C([C@@H]1O[C@H](CO)[C@H](O)[C@H](n2cc(-c3cccc(F)c3)nn2)[C@H]1O)N1CCN(c2ccc(O)cn2)CC1 [Example 2]
1100			O=C([C@@H]1O[C@H](CO)[C@H](O)[C@H](n2cc(-c3cccc(F)c3)nn2)[C@H]1O)N1CCN(c2ccc(O)cc2)C(CO)C1 (single isomer, unassigned) [Example 35a]
220			COc1ccc(N2CC3CC2CN3C(=O)[C@@H]2O[C@H](CO)[C@H](O)[C@H](n3cc(-c4cccc(F)c4)nn3)[C@H]2O)cc1 (stereo in doubt) [Example 31, ((2R,3R,4S,5R,6R)-4-(4-(3-fluorophenyl)-1H-1,2,3-triazol-1-yl)-3,5-dihydroxy-6-(hydroxymethyl)tetrahydro-2H-pyran-2-yl)((1S,4S)-5-(4-methoxyphenyl)-2,5-diazabicyclo[2.2.1]heptan-2-yl)methanone]
250			O=C(Nc1ccc(O)cc1)N1CCN(C(=O)[C@@H]2O[C@H](CO)[C@H](O)[C@H](n3cc(-c4cccc(F)c4)nn3)[C@H]2O)CC1 [Example 18, 4-((2R,3R,4S,5R,6R)-4-(4-(3-fluorophenyl)-1H-1,2,3-triazol-1-yl)-3,5-dihydroxy-6-(hydroxymethyl)tetrahydro-2H-pyran-2-carbonyl)-N-(4-hydroxyphenyl)piperazine-1-carboxamide]
400			Cc1ccc(N2C[C@H]3CN(C(=O)[C@@H]4O[C@H](CO)[C@H](O)[C@H](n5cc(-c6cccc(F)c6)nn5)[C@H]4O)C[C@H]3C2)cc1 [Example 38, ((2R,3R,4S,5R,6R)-4-(4-(3-fluorophenyl)-1H-1,2,3-triazol-1-yl)-3,5-dihydroxy-6-(hydroxymethyl)tetrahydro-2H-pyran-2-yl)((3aR,6aS)-5-(p-tolyl)hexahydropyrrolo[3,4-c]pyrrol-2(1H)-yl)methanone]
300			COc1ccc(N2CCN(C(=O)[C@@H]3O[C@H](CO)[C@H](O)[C@H](n4cc(-c5cccc(F)c5)nn4)[C@H]3OC)CC2)cc1 [Example 11, ((2R, 3R, 4S, 5R, 6R)-4-(4-(3-fluorophenyl)-1H-1,2,3-triazol-1-yl)-5-hydroxy-6-(hydroxymethyl)-3-methoxytetrahydro-2H-pyran-2-yl)(4-(4-methoxyphenyl)piperazin-1-yl) methanone]
340			CC1CN(c2ccc(O)cc2)CCN1C(=O)[C@@H]1O[C@H](CO)[C@H](O)[C@H](n2cc(-c3cccc(F)c3)nn2)[C@H]1O (single isomer, unassigned) [Example 36]
310			C[C@@H]1CN(c2ccc(O)cc2)[C@@H](C)CN1C(=O)[C@@H]1O[C@H](CO)[C@H](O)[C@H](n2cc(-c3cccc(F)c3)nn2)[C@H]1O (single isomer, unassigned) [Example 37b]
180			O=C([C@@H]1O[C@H](CO)[C@H](O)[C@H](n2cc(-c3cccc(F)c3)nn2)[C@H]1O)N1C[C@H]2C[C@@H]1CN2c1ccc2c(c1)OCO2 [Example 32]
1600			OCC1CN(C[C@@H]2O[C@H](CO)[C@H](O)[C@H](n3cc(-c4cccc(F)c4)nn3)[C@H]2O)CCN1c1ccc(O)cc1 (single isomer, unassigned) [Example 40b]
580			O=C(C[C@@H]1O[C@H](CO)[C@H](O)[C@H](n2cc(-c3cccc(F)c3)nn2)[C@H]1O)N1C[C@@H]2C[C@H]1CN2c1ccc2c(c1)OCO2 [Example 28]
		522	COc1ccc(N2CC3CC2CN3C(=O)C2OC(CO)C(O)C(n3cc(-c4cccc(F)c4)nn3)C2O)cc1OC (stereo not shown) [Example 22]
390			OCC1CN(c2ccc(O)cc2)CCN1C[C@@H]1O[C@H](CO)[C@H](O)[C@H](n2cc(-c3cccc(F)c3)nn2)[C@H]1O (single isomer, unassigned) [Example 39b]
